According to US10258640B2, “Method of inhibiting quorum sensing in Pseudomonas aeruginosa” (priority 2015, dated 2019):

What was measured:
[1] = test system: las quorum-sensing system; test: PA01 lasB-gfp cell-based fluorescence reporter assay; design: species or system Pseudomonas aeruginosa; settings: various micromolar concentrations
From the text: The inhibition of quorum sensing has been observed by the inventors during a chemical screen set up to look for small-molecule inhibitors of quorum sensing in P. aeruginosa. The assay used is a cell-based fluorescence assay (PA01 lasB-gfp) in which the expression of GFP is controlled by a las-regulated promoter. Inhibition of induction of the las quorum-sensing system by a small molecule is marked by the reduction in GFP signal relative to an untreated sample.

[2] = test system: rhl quorum-sensing system; test: PA01 rhlA-gfp reporter assay; format: cell-based, Pseudomonas aeruginosa; settings: various micromolar concentrations
[3] = test system: pqs quorum-sensing system; test: PA01 pqsA-gfp reporter assay; format: cell-based, Pseudomonas aeruginosa; settings: various micromolar concentrations
P. aeruginosa = test: Growth of P. aeruginosa; format: cell-based, Pseudomonas aeruginosa; settings: low micromolar concentrations
P. aeruginosa proteome = test: Proteomic analysis of auranofin-treated cultures; format: cell-based, Pseudomonas aeruginosa; settings: proteome in presence or absence of auranofin
[4] = test system: lasA, rhlA, pqsA, exsC, pscL, pilM and pilY genes; test: Quantitative RT-PCR of RNA levels; format: cell-based, Pseudomonas aeruginosa
elastase (LasB) = test: Elastase activity in culture supernatants (commercial elastase activity kit); format: cell-based, Pseudomonas aeruginosa; settings: culture supernatants after 7 hours of treatment, various micromolar concentrations
Description: LasB levels were measured using a commercial elastase activity kit.

rhamnolipids = test: Rhamnolipid levels in culture supernatants (MRM mass spectrometry); format: cell-based, Pseudomonas aeruginosa; settings: culture supernatants after 7 hours of treatment, various micromolar concentrations
Description: Rhamnolipid levels were determined using multiple reaction monitoring (MRM) mass spectrometry.

pyocyanin = test: Pyocyanin levels in culture supernatants (absorbance at 691 nm); format: cell-based, Pseudomonas aeruginosa; settings: culture supernatants after 7 hours of treatment, various micromolar concentrations
Description: Pyocyanin levels were determined via absorbance at 691 nm.

P. aeruginosa (PA01) [5] = test: Swarming motility assay; format: cell-based, Pseudomonas aeruginosa; settings: 10 μM
From the text: (§1) The top-left and bottom-left petri dishes contain P. aeruginosa (PA01) and PA01-lasIrhlI, respectively, serving as the controls.

P. aeruginosa (PA01) [6] = test: Twitching motility assay; format: cell-based, Pseudomonas aeruginosa; settings: 10 μM
From the text: as §1

P. aeruginosa (PA01) [7] = test: Swimming motility assay; format: cell-based, Pseudomonas aeruginosa; settings: 10 μM
[8] = biological target: wild-type Vfr binding to the promoter of lasR (plasR) (Pseudomonas aeruginosa, UniProt P55222); test: Electrophoretic mobility shift assay (EMSA), wild-type Vfr; settings: increasing concentrations
Chain of wild-type Vfr binding to the promoter of lasR (plasR) (P55222 whole entry, the tested form may be a part): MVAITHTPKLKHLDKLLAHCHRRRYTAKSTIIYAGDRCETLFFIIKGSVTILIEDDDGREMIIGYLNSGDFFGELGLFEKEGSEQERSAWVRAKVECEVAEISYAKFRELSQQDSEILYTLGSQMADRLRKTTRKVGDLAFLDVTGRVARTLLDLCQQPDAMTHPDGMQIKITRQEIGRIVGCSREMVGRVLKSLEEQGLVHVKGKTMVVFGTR
From the text: (§2) It depicts auranofin inhibiting the binding of wild-type Vfr, but not of the mutant pentaCys variant, to a DNA fragment containing the lasR promoter sequence (plasR) in a dose dependent manner.
(§3) It was hypothesized that auranofin inhibits Vfr, a global response regulator dependent on cyclic-AMP, which is known to control Type III secretion, Type IV pilus assembly and the quorum sensing networks (las and rhl). This was validated using electrophoretic mobility shift assays (EMSA) (see FIG. 6). Based on the EMSA, it can be seen that the binding of wild-type Vfr to the promoter of lasR (plasR), was inhibited by treatment with auranofin. In contrast, the binding of mutant Vfr proteins (C38S/C97S or C38S/C183S) to the same DNA fragment was not inhibited by auranofin.

[9] = test system: mutant Vfr proteins (C38S/C97S or C38S/C183S) binding to plasR; test: Electrophoretic mobility shift assay (EMSA), mutant Vfr; design: species or system Pseudomonas aeruginosa; settings: increasing concentrations
From the text: as §2, §3

[10] = test system: Δvfr strain expressing pentaCys Vfr; test: Twitching motility in Δvfr strain complemented with pentaCys Vfr; format: cell-based, Pseudomonas aeruginosa
[11] = test system: Δvfr strain expressing pentaCys Vfr; test: Quorum sensing (LasB production) in Δvfr strain complemented with pentaCys Vfr; format: cell-based, Pseudomonas aeruginosa
P. aeruginosa biofilms = test: Biofilm treatment (GFP-expressing cells, propidium iodide staining, imaging); format: cell-based, Pseudomonas aeruginosa
Description: FIG. 8 depicts the effects of auranofin, and its combination either with colistin or tobramycin, on the morphology of biofilms formed using P. aeruginosa cells expressing green fluorescent protein (GFP). DNA from dead cells were labeled with propidium iodide. Auranofin was added either prior to (lower panels) or after formation of the biofilm (24 h before imaging, middle panels). Colistin and tobramycin were added after formation of the biofilm (24 h before imaging, middle panels). […] Scale bar: 5 μm.
Quorum sensing inhibitors are known to affect biofilm morphology and structure. Since auranofin inhibits Vfr, which in turn affects quorum sensing, the effects of auranofin treatment on P. aeruginosa biofilms were investigated.

| Compound | induction of las (PA01 lasB-gfp) quorum-sensing network, RFU/OD against time [1] | induction of rhl (PA01 rhlA-gfp) quorum-sensing network, RFU/OD against time [2] | induction of pqs (PA01 pqsA-gfp) quorum-sensing network, RFU/OD against time [3] | effect on growth of P. aeruginosa (P. aeruginosa) | cellular levels of proteins controlled by quorum sensing (P. aeruginosa proteome) | levels of proteins involved in Type III secretion and formation of the Type IV pilus (P. aeruginosa proteome) | RNA levels of quorum-sensing regulated, Type III secretion and Type IV pilus assembly genes [4] | level of virulence factor LasB (elastase activity) (elastase (LasB)) | level of virulence factor rhamnolipids (rhamnolipids) | level of virulence factor pyocyanin (pyocyanin) | swarming motility (P. aeruginosa (PA01) [5]) | twitching motility (P. aeruginosa (PA01) [6]) | swimming motility (P. aeruginosa (PA01) [7]) | binding of wild-type Vfr to the promoter of lasR (plasR) [8] | binding of mutant Vfr proteins to the same DNA fragment (plasR) [9] | twitching in the strain expressing the pentaCys Vfr [10] | QS (LasB production) in the strain expressing the pentaCys Vfr [11] | biofilm morphology disruption and killing, together with colistin (P. aeruginosa biofilms; auranofin together with colistin) | biofilm morphology disruption and killing, together with tobramycin (P. aeruginosa biofilms; auranofin together with tobramycin) | effect on biofilm morphology and cell death (P. aeruginosa biofilms; auranofin treatment prior to biofilm formation) |
| --- | --- | --- | --- | --- | --- | --- | --- | --- | --- | --- | --- | --- | --- | --- | --- | --- | --- | --- | --- | --- |
| OC[C@H]1O[C@H]([S-])[C@H](O)[C@@H](O)[C@@H]1O.[Au+] [aurothioglucose] | completely inhibiting |  |  |  |  |  |  |  |  |  |  |  |  |  |  |  |  |  |  |  |
| CC(=O)OC[C@H]1O[C@@H]([S-])[C@H](OC(C)=O)[C@@H](OC(C)=O)[C@@H]1OC(C)=O.CCP(CC)CC.[Au+] [auranofin] | completely inhibiting | completely inhibiting | completely inhibiting | not affecting growth | down-regulated | down-regulation | generally down-regulated | reduced | reduced | reduced | inhibit | inhibit | does not inhibit | inhibited | not inhibited | still able to inhibit | still able to inhibit | synergistic effects | synergistic effects | substantial cell death and the loss of the characteristic morphology of normal biofilms |
| sodium aurothiomalate | completely inhibiting |  |  |  |  |  |  |  |  |  |  |  |  |  |  |  |  |  |  |  |
